Laboratory results as given in US20060019241A1, “Na+ and CI-coupled transport system for endogenous opioid peptides” (priority 2004, published 2006).
“Also recorded” adds a separate entry of the source.

Experiments:
[1] = tested on: deltorphin II uptake inducible by rMC-1 mRNA in X. laevis oocytes; experiment: Deltorphin II uptake in X. laevis oocytes injected with rMC-1 mRNA; format: cell-based, rat; settings: X. laevis oocytes injected with rMC-1 poly(A)+ mRNA, deltorphin II 125 nM
Description: Therefore, functional expression of the deltorphin II transport system in X. laevis oocytes will be used to clone this transport system. […] Poly(A)+ mRNA was prepared from this cell line for functional expression studies in X. laevis oocytes.

[2] = tested on: deltorphin II transport system in control ARPE-19 cells; experiment: Inhibition of [^3H]deltorphin II uptake in control ARPE-19 cells; format: cell-based, human; settings: [^3H]deltorphin II 50 nM, 30 minutes, NaCl, peptide/antagonist 1 mM
Source text: (§1) Stable transfection of ARPE-19 cells with pcDNA-Tat cDNA. The pGEM2-Tat cDNA construct contained as the insert a 295 basepair (bp) fragment encoding the first exon of HIV-1 Tat gene joined to a 145 bp pET3A transcription terminator. The entire insert (440 bp) was removed from the construct by digestion with PstI and EcoRI and ligated into the multiple cloning region of pcDNA3.1 (−) vector at PstI/EcoRI site so that the insert is downstream of the cytomegalovirus (CMV) promoter. The resultant construct was sequenced to confirm the orientation of the insert. This construct was electroporated into ARPE-19 cells and the stably transfected cell clones were isolated in the presence of Geneticin (G418). To serve as a control, empty pcDNA3.1 vector was electroporated into ARPE-19 cells in an identical manner and the clones harboring the vector were selected by G418 resistance.
(§2) Uptake measurements in control ARPE-19 cells and Tat-ARPE-19 cells. Control ARPE-19 cells and Tat-ARPE-19 cells were maintained in 75-cm^2 culture flasks in Dulbecco's modified Eagle's medium/F12 medium (1:1, volume/volume (v/v)) in the presence of fetal bovine serum (10%) and G418 (100 μg/ml). For uptake measurements, cells were released by trypsin treatment and seeded in 24-well culture plates at an initial density of 0.1×10^6 cells/well. The culture medium was replaced with fresh medium on the second day following the initial seeding and uptake measurements were made on the third day. […] After incubation at 37° C. for a desired time, uptake was terminated by the removal of the medium and washing of the cells with ice-cold uptake buffer. The cells were then dissolved in 1% SDS in 0.2 M NaOH and used for measurement of radioactivity. The uptake buffer in most experiments was 25 mM Hepes/Tris (pH 7.5), containing 140 mM NaCl, 5.4 mM KCl, 1.8 mM CaCl2, 0.8 mM MgSO4 and 5 mM glucose.
(§3) Substrate specificity of the deltorphin transport system. […] These peptides consisted of 4-13 amino acids.

[3] = tested on: deltorphin II transport system in Tat-ARPE-19 cells; experiment: Inhibition of [^3H]deltorphin II uptake in Tat-ARPE-19 cells; format: cell-based, human; settings: Tat-ARPE-19 cells, [^3H]deltorphin II 50 nM, 30 minutes, NaCl, inhibitor 1 mM
Source text: as §1, §2
When the influence of Na^+ on the uptake process was investigated, the concentration of NaCl in the uptake buffer was adjusted, as desired, by isoosmotically replacing NaCl with N-methyl-D-glucamine chloride. To assess the influence of Cl^− on the uptake process, the composition of the uptake medium was modified by replacing KCl and CaCl2 with equimolar concentrations of potassium gluconate and calcium gluconate and the concentration of NaCl was adjusted, as desired, by iso-osmotically replacing NaCl with sodium gluconate. Saturation kinetics were analysed by fitting the data to the Michaelis-Menten equation. The Michaelis-Menten constant, Kt, was calculated by non-linear regression analysis and then confirmed by linear regression. Na^+- and Cl^−-activation kinetics were analyzed by fitting the data to the Hill equation and the Hill coefficients for Na^+ and Cl^− (h; the number of Na^+ and Cl^− ions involved in the activation process) and the K0.5 values (the concentration of Na^+ and Cl^−-needed for half-maximal activation) were determined from the analysis. Again, these constants were first calculated by non-linear regression methods and subsequently confirmed by linear regression methods. Experiments were repeated three times in duplicate and the results are given as means±S.E.M.
as §3
Relative affinities of endogenous opioid peptides for the transport system.

[4] = tested on: opioid peptide transport system in rMC-1 cells; experiment: Opioid peptide transport in rMC-1 cells; format: cell-based, rat
SK—N—SH cells = experiment: L-lysine uptake in SK—N—SH cells; format: cell-based, human
Description: Whether or not L-lysine is a transportable substrate for the opioid peptide transport system was tested. For this, uptake of L-lysine was studied and the influence of Na^+ and opioid peptides assessed in SK—N—SH cells.

[5] = tested on: enkephalin/endorphin transport system in SK—N—SH cells; experiment: [^3H]deltorphin II uptake in SK—N—SH cells, effect of peptides and amino acids; format: cell-based, human; settings: for influence on kinetics of deltorphin II uptake / type of inhibition: 250 μM L-Lysine; for effect on [^3H]deltorphin II uptake (in words): test substance 1 mM
Description: as §2
Since enkephalins and endorphins are relevant to pain perception and to further provide evidence in support of a role for the transport system in opioidergic neurotransmission, the human neuronal cell line SK—N—SH was tested for expression of the transport system. […] Unless otherwise specified, procedures are as detailed in Example 1.
The concentration of enkephalins and dynorphins was 1 mM.
Finally, the relative affinity of various enkephalins and dynorphins for the transport system in SK—N—SH cells was determined.
To the further characterize the opioid transport of the present invention, various specific peptides that act as positive modulators of the enkephalin/endorphin transport system in the human neuronal cell line SK—N—SH were identified. Unless otherwise specified, procedures are as detailed in Example 1. […] Uptake was measured in the presence of NaCl for 30 minutes. The concentration of the dipeptides was 1 mM.
Uptake was measured in the presence of NaCl for 30 minutes. The concentration of the tripeptides was 1 mM.
Unless otherwise specified, procedures are as described in more detail in Example 1.
The dose-response relationship for the inhibition of the enkephalin/endorphin transport system by L-Lysine and its methyl and ethyl esters is shown in FIG. 15.

Compound: C[C@]12CC[C@@H]3c4ccc(OS(=O)(=O)O)cc4CC[C@H]3[C@@H]1CCC2=O [estrone-3-sulfate]
- inhibition of mRNA-induced deltorphin II uptake (in words) [1]: only a slight inhibition; also recorded: only slightly inhibited

Compound: YGGFLRRQF [Dynorphin B (1-9)]
- [^3H] Deltorphin II uptake ([2]; control ARPE-19 cells (pcDNA vector alone)): 0.06 ± 0.000 pmol/mg protein/30 min
- [^3H] Deltorphin II uptake (%) of control ([2]; control ARPE-19 cells, control = 100): 5%
- [^3H] Deltorphin II uptake [3]: 0.08 ± 0.01 pmol/mg protein/30 min
- [^3H] Deltorphin II uptake (%) of control ([3]; control = 100): 1%
- inhibition of mRNA-induced deltorphin II uptake (in words) ([1]; listed as dynorphin B 1-9): completely inhibitable
- inhibition of mRNA-induced deltorphin II uptake (in words) ([1]; listed as dynorphin B1-9): completely inhibited

Compound: NCCCC[C@H](N)C(=O)O [L-Lys, L-lysine]
- interaction with the opioid peptide transport system (in words) [4]: inhibited; also recorded: not a transportable substrate but a blocker
- L-lysine uptake: influence of Na^+ and opioid peptides; transportable substrate or not (SK—N—SH cells): not Na^+-dependent and is insensitive to opioid peptides; also recorded: not a transportable substrate
- interaction with the opioid peptide transport system (in words, summary of Examples) [5]: inhibited; also recorded: not a transportable substrate but a blocker
- influence on kinetics of deltorphin II uptake / type of inhibition ([5]; listed as L-Lysine): decreased the maximal velocity of the transport system without affecting the affinity for deltorphin II; also recorded: decreasing the maximal velocity without affecting the substrate affinity
- influence on kinetics of deltorphin II uptake / type of inhibition ([5]; listed as L-lysine): non-competitive
- Deltorphin II uptake ([5]; [^3H]deltorphin II 25 nM, NaCl, 30 minutes, compound 1 mM): 0.26 ± 0.01 pmol/30 min/mg protein
- effect on [^3H]deltorphin II uptake (in words) ([5]; [^3H]deltorphin II 25 nM, NaCl, 30 minutes, listed as L-Lysine): significant inhibition; also recorded: most potent inhibitors
- effect on [^3H]deltorphin II uptake (in words) ([5]; [^3H]deltorphin II 25 nM, NaCl, 30 minutes, listed as L-lysine): greatest inhibition; also recorded: inhibit the uptake to a marked extent
- Ki ([5]; read-out: Ki for inhibition of deltorphin II uptake, dose-response studies): 160 ± 19 µM
